Results reported in ChEMBL document CHEMBL1126358, “New hexahydroxydiphenyl derivatives as potent inhibitors of HIV replication in H9 lymphocytes” (Bioorg Med Chem Lett, 1992).

How the values were obtained:
[1] = system: H9; assay: Concentration of compound which inhibits virus replication of HIV by 50% (EC50 of 10 uM) in acutely infected H9 lymphocyte cells was determined; type: functional, cell-based; conditions: Homo sapiens
[2] = system: H9; assay: Concentration which inhibits uninfected cell growth of HIV by 50% (IC50>140 uM) in acutely infected H9 lymphocyte cells was determined; type: functional, cell-based; conditions: Homo sapiens

Row | EC50 [1] [µM] | SMILES | IC50 [2] [µM]
1 | > 100 | BrCc1cc(OCc2ccccc2)c(OCc2ccccc2)c(OCc2ccccc2)c1-c1c(CBr)cc(OCc2ccccc2)c(OCc2ccccc2)c1OCc1ccccc1 | > 100
2 | 45 | O=Cc1cc(OCc2ccccc2)c(OCc2ccccc2)c(OCc2ccccc2)c1-c1c(C=O)cc(OCc2ccccc2)c(OCc2ccccc2)c1OCc1ccccc1 | 70
3 | 10 | COc1c(OCc2ccccc2)c(OCc2ccccc2)cc(CO)c1-c1c(CO)cc(OCc2ccccc2)c(OCc2ccccc2)c1OC | > 140
4 | > 120 | OCc1cc(OCc2ccccc2)c(OCc2ccccc2)c(OCc2ccccc2)c1-c1c(CO)cc(OCc2ccccc2)c(OCc2ccccc2)c1OCc1ccccc1 | > 120

The next lines start with the molecule.

Row | SMILES | EC50 [1] [µM] | IC50 [2] [µM]
5 | COc1c(OCc2ccccc2)c(OCc2ccccc2)cc(CBr)c1-c1c(CBr)cc(OCc2ccccc2)c(OCc2ccccc2)c1OC | 13 | 30
6 | COc1c(OCc2ccccc2)c(OCc2ccccc2)cc(C=O)c1-c1c(C=O)cc(OCc2ccccc2)c(OCc2ccccc2)c1OC | 2 | 4
7 | OCc1cc(OCc2ccccc2)c(OCc2ccccc2)c(O)c1-c1c(CO)cc(OCc2ccccc2)c(OCc2ccccc2)c1O | 6 | 13
8 | Cc1cn([C@H]2C[C@H](N=[N+]=[N-])[C@@H](CO)O2)c(=O)[nH]c1=O [ZIDOVUDINE] | 0.04 | 2000
